2 compounds from patent publication US20240383870A1, “HETEROCYCLIC ALDEHYDE TRAPPING COMPOUNDS AND USES THEREOF” (Aldeyra Therapeutics, Inc., priority 2021, published 2024) can be followed below.

Format in all cases: in vivo
What all share (details): 100 mpk IP; LPS-challenged mice, plasma at 6.5 h; unpaired t-test vs vehicle

One test has as its system MIP2(CXCL2). The experiment in a line: Acute LPS-induced sepsis in C57BL/6 mice: MIP2(CXCL2) cytokine detection assay. The source says: FIG. 27 is a graph showing the results of a MIP2(CXCL2) cytokine detection assay in samples collected from mouse subjects after administration of compounds of the present disclosure.
(§1) The primary objective of this study was to collect plasma samples of lipopolysaccharide (LPS) challenged C57BL/6 mice after dose of test compounds to provide a cytokine profile as impacted by prophylactic treatments. This study models acute sepsis, which is a systemic inflammatory syndrome initiated by Gram-negative and Gram-positive bacteria and fungi which infect the lungs, abdomen, bloodstream, and renal or genitourinary tracts. Sepsis patients ultimately die of multiorgan failure which is caused by extensive tissue hypo-oxygenation due to ongoing microvascular leakage, disseminated intravascular coagulation, compromised energy production, and metabolic alterations. Sepsis is characterized by an early systemic inflammatory response phase featuring symptoms, such as tachycardia, fever, hyperventilation, and activation of the complement and coagulation cascades. However, it is now appreciated that a compensatory anti-inflammatory response phase follows, characterized by neuroendocrine-mediated immunosuppression. Since these processes are the result of interaction between cells of inflammation and organs, investigation of the treatment of this syndrome requires the use of intact animal models. The use of ten mice per group allows useful statistical modelling of the results.
(§2) For the data shown in Table 2A, 103 mice (female, 18-22 gram, C57BL/6) were purchased from ENVIGO. The mice were housed in 20 cages of 5 mice per cage with 1 cage of 3 mice as extra. The cages had filter tops and autoclaved bedding, and the animals were placed in quarantine with daily inspection. The treatment groups are detailed in Table 2A below. 10 mice were included in each group. […] MC=methyl cellulose.
(§3) For the data shown in Table 2B, 185 mice (female, 18-22 gram, C57BL/6) were purchased from ENVIGO. The mice were housed in 37 cages of 5 mice per cage. The cages had filter tops and autoclaved bedding, and the animals were placed in quarantine with daily inspection. The treatment groups are detailed in Table 2B below. 10 mice were included in each group. The mice were dosed by oral gavage (P0) at 10 ml/kg as per the table below. MC=methyl cellulose.
(§4) At T=0 h, the mice were dosed with one of the test compounds as described in the above table.
(§5) At T=0.5 h, the mice were injected IP with 1.5 mg/kg […] (Sigma).
(§6) At T=6.5 h, all mice were anesthetized and exsanguinated into pre-chilled EDTA-treated tubes. […]
(§7) A 32-plex cytokine panel was obtained from Eve Technologies. Each cytokine was assessed based against a 7 point curve range in duplicate. […]

The next test deals with IL-7. Put plainly: Acute LPS-induced sepsis in C57BL/6 mice: IL-7 cytokine detection assay.
The next test relates to MCP-1(CCL2). Put plainly: Acute LPS-induced sepsis in C57BL/6 mice: MCP-1(CCL2) cytokine detection assay.
The test system of a further test is MIP-1a(CCL3). Put plainly: Acute LPS-induced sepsis in C57BL/6 mice: MIP-1a(CCL3) cytokine detection assay.
Another test deals with IL-15. Put plainly: Acute LPS-induced sepsis in C57BL/6 mice: IL-15 cytokine detection assay.
Another test has as its system IL-10. Put plainly: Acute LPS-induced sepsis in C57BL/6 mice: IL-10 cytokine detection assay.
The next test concerns G-CSF. The experiment in a line: Acute LPS-induced sepsis in C57BL/6 mice: G-CSF cytokine detection assay.
In the next test the test system is IL-3. The experiment in a line: Acute LPS-induced sepsis in C57BL/6 mice: IL-3 cytokine detection assay.
In another test the test system is IL-12(p70). Put plainly: Acute LPS-induced sepsis in C57BL/6 mice: IL-12(p70) cytokine detection assay.
From the text: FIG. 16 is a graph showing the results of an IL-12(p70) cytokine detection assay in samples collected from mouse subjects after administration of compounds of the present disclosure.
as §1, §2, §3, §4, §5
At T=6.5 h, all mice were anesthetized and exsanguinated into pre-chilled EDTA-treated tubes. The blood was processed to plasma which was stored in labeled 0.5 polypropylene snap-cap tubes (0.5 mL Eppendorf Safe-Lock Tubes (Fisher Scientific) at −80° C.
Preparation of vehicle: 1.0 gram of methyl cellulose (Sigma) was dissolved in 200 mL of water (USP purified) to make a solution of 0.5% methyl cellulose in water. Preparation of LPS solution: 6 mg of LPS (from Escherichia Coli 055:B5, Cat #L2880, Sigma Lot #057m4013) was dissolved in 20 ml of saline to give a LPS solution of 0.3 mg/ml. All mice were injected with 5 ml/kg (1.5 mg/kg) at the scheduled time by intraperitoneal injection.
A 32-plex cytokine panel was obtained from Eve Technologies. Each cytokine was assessed based against a 7 point curve range in duplicate. The average of the two replicate analyses was used for statistics. Unpaired t-tests were performed using Excel™ contrasting vehicle against each treatment group. One star indicates P<0.05. […]

A further test concerns IFNγ. Put plainly: Acute LPS-induced sepsis in C57BL/6 mice: IFNγ cytokine detection assay.
Another test concerns eotaxin. The experiment in a line: Acute LPS-induced sepsis in C57BL/6 mice: eotaxin cytokine detection assay.
The subject of a further test is IL-17. Put plainly: Acute LPS-induced sepsis in C57BL/6 mice: IL-17 cytokine detection assay.
From the text: FIG. 19 is a graph showing the results of an IL-17 cytokine detection assay in samples collected from mouse subjects after administration of compounds of the present disclosure.
as §1, §2, §3, §4, §5, §6, §7

The structures appear in SMILES notation.

For `CC(O)(c1cccc2[nH]nc(N)c12)C(F)(F)F` (stereo not shown) [Compound I-9, 2-(3-amino-1H-indazol-4-yl)-1,1,1-trifluoropropan-2-ol], the “MIP-2: significant cytokine change vs. vehicle” value in the test on MIP2(CXCL2) is listed as “* (One star indicates P<0.05)”. Also, the “IL-7: significant cytokine change vs. vehicle” value in the test with IL-7 is on record as “*** (Three stars indicates P<0.001)”. Further, the “MCP-1: significant cytokine change vs. vehicle” value in the test with MCP-1(CCL2) was “* (One star indicates P<0.05)”. Further, the “MIP-1a: significant cytokine change vs. vehicle” value with MIP-1a(CCL3) is reported as “** (Two stars indicates P<0.01)”. Further, the “IL-15: significant cytokine change vs. vehicle” value in the test with IL-15 is on record as “** (Two stars indicates P<0.01)”. Also, the “IL-10: significant cytokine change vs. vehicle” value in the test with IL-10 is “**** (Four stars indicates P<0.0001)”.
For `CC(O)(c1sc2ccccc2c1N)C(F)(F)F` (stereo not shown) [Compound I-1, 2-(3-aminobenzo[b]thiophen-2-yl)-1,1,1-trifluoropropan-2-ol], the “IL-7: significant cytokine change vs. vehicle” value in the test with IL-7 is reported as “* (One star indicates P<0.05)”. Also, the “G-CSF: significant cytokine change vs. vehicle” value in the test with G-CSF was “* (One star indicates P<0.05)”. Also, the “MIP-1a: significant cytokine change vs. vehicle” value with MIP-1a(CCL3) is “** (Two stars indicates P<0.01)”. For the same compound, the “IL-3: significant cytokine change vs. vehicle” value in the test with IL-3 is recorded as “**** (Four stars indicates P<0.0001)”. Moreover, the “IL-12 (p70): significant cytokine change vs. vehicle” value with IL-12(p70) is on record as “* (One star indicates P<0.05)”. In the test on IFNγ, the “IFNy: significant cytokine change vs. vehicle” value was “**** (Four stars indicates P<0.0001)”. The “IL-15: significant cytokine change vs. vehicle” value in the test with IL-15 is reported as “** (Two stars indicates P<0.01)”. Besides, the “Eotaxin: significant cytokine change vs. vehicle” value with eotaxin is “* (One star indicates P<0.05)”. Further, the “IL-10: significant cytokine change vs. vehicle” value with IL-10 is on record as “**** (Four stars indicates P<0.0001)”. In addition, the “IL-17: significant cytokine change vs. vehicle” value with IL-17 was “*** (Three stars indicates P<0.001)”.
